In patent publication US20130245081A1, “Compositions and Methods for Treating Amyotrophic Lateral Sclerosis” (priority 2009, published 2013):
Several values for one entry are separate records, joined by “and”; a condition that tells them apart may be missing. Identical values can stand only once. Like-named read-outs stand apart in the source and are kept apart here.

Test system: patients with ALS

Compound: CCCN[C@@H]1CCc2nc(N)sc2C1 [dexpramipexole, (6R)-2-amino-4,5,6,7-tetrahydro-6-(propylamino)benzothiazole]
- Unadjusted Slope Estimate, Bulbar (50 mg): −0.364
- Unadjusted Slope Estimate, Fine (50 mg): −0.311
- Unadjusted Slope Estimate, Gross (50 mg): −0.305
- Unadjusted Slope Estimate, Resp (50 mg): −0.270
- Zero Imputation Slope Estimate, Bulbar (50 mg): −0.578
- Zero Imputation Slope Estimate, Fine (50 mg): −0.440
- Zero Imputation Slope Estimate, Gross (50 mg): −0.390
- Zero Imputation Slope Estimate, Resp (50 mg): −0.575
- joint rank test of survival and ALSFRS-R (generalized Gehan Wilcoxon test) (50 mg versus 300 mg, through Week 28, p=0.046): statistically significant difference
- McGill SIS, Mean (SE) (50 mg, Endpoint of Part 2): 5.9 (0.38)
- McGill SIS, Mean Δ (SE) from baseline (50 mg, Endpoint of Part 2): −0.5 (0.27)
- McGill SIS, Median Δ (50 mg, Endpoint of Part 2): 0.0
- Upright Vital Capacity, Mean (SE) (50 mg, Endpoint of Part 2): 62.2 (4.19) % predicted
- Upright Vital Capacity, Mean Δ (SE) from baseline of Part 2 (50 mg, Endpoint of Part 2): −14.6 (3.54) % predicted
- Upright Vital Capacity, Median Δ (50 mg, Endpoint of Part 2): −11.5 % predicted
- McGill SIS, Mean (SE) (50 mg, Week 8): 6.2 (0.37)
- McGill SIS, Mean Δ (SE) from baseline (50 mg, Week 8): −0.2 (0.19)
- McGill SIS, Median Δ (50 mg, Week 8): 0.0
- Upright Vital Capacity, Mean (SE) (50 mg, Week 8): 73.7 (2.92) % predicted
- Upright Vital Capacity, Mean Δ (SE) from baseline of Part 2 (50 mg, Week 8): −3.2 (1.67) % predicted
- Upright Vital Capacity, Median Δ (50 mg, Week 8): −1.9 % predicted
- McGill SIS, Mean (SE) (50 mg, Week 12): 6.5 (0.34)
- McGill SIS, Mean Δ (SE) from baseline (50 mg, Week 12): −0.1 (0.20)
- McGill SIS, Median Δ (50 mg, Week 12): 0.0
- Upright Vital Capacity, Mean (SE) (50 mg, Week 12): 72.9 (3.82) % predicted
- Upright Vital Capacity, Mean Δ (SE) from baseline of Part 2 (50 mg, Week 12): −4.0 (2.19) % predicted
- Upright Vital Capacity, Median Δ (50 mg, Week 12): −3.1 % predicted
- McGill SIS, Mean (SE) (50 mg, Week 16): 6.1 (0.37)
- McGill SIS, Mean Δ (SE) from baseline (50 mg, Week 16): −0.3 (0.22)
- McGill SIS, Median Δ (50 mg, Week 16): 0.0
- McGill SIS, Mean (SE) (50 mg, Week 20): 6.1 (0.33)
- McGill SIS, Mean Δ (SE) from baseline (50 mg, Week 20): −0.7 (0.22)
- McGill SIS, Median Δ (50 mg, Week 20): −1.0
- Upright Vital Capacity, Mean (SE) (50 mg, Week 20): 75.8 (4.02) % predicted
- Upright Vital Capacity, Mean Δ (SE) from baseline of Part 2 (50 mg, Week 20): −6.0 (3.36) % predicted
- Upright Vital Capacity, Median Δ (50 mg, Week 20): −7.2 % predicted
- McGill SIS, Mean (SE) (50 mg, Week 24): 6.3 (0.43)
- McGill SIS, Mean Δ (SE) from baseline (50 mg, Week 24): −0.4 (0.23)
- McGill SIS, Median Δ (50 mg, Week 24): 0.0
- McGill SIS, Mean (SE) (50 mg, Week 28): 5.9 (0.45)
- McGill SIS, Mean Δ (SE) from baseline (50 mg, Week 28): −0.7 (0.23)
- McGill SIS, Median Δ (50 mg, Week 28): 0.0
- Upright Vital Capacity, Mean (SE) (50 mg, Week 28): 69.5 (3.79) % predicted
- Upright Vital Capacity, Mean Δ (SE) from baseline of Part 2 (50 mg, Week 28): −12.4 % predicted and −12.4 (3.00) % predicted
- Upright Vital Capacity, Median Δ (50 mg, Week 28): −10.4 % predicted
- decline in ALSFRS-R scores (repeated measures mixed effect model) (50 mg, Week 28): −7.05
- subjects who died (incl. after discontinuation) (50 mg, double-blind period through Week 28): 9 (19%) N (%) and 9 N (%)
- total number of deaths (50 mg, first 24-week randomized active treatment period): 7
- did not require tracheostomy and did not die (50 mg, through Week 28): 81%
- mean change from baseline in ALSFRS-R total score (50 mg, through Week 28): −6.5
- slope estimate of ALSFRS-R scores (linear mixed effects model) (50 mg, through Week 28): −1.283
- slope of ALSFRS-R total scores, zero imputed for first post-death visit (50 mg, through Week 28): −2.05
- slope of upright vital capacity (linear mixed effects, unadjusted) (50 mg, through Week 28): −2.452
- subjects with feeding tubes placed (50 mg, through Week 28): 9 (19%) N (%)
- Unadjusted Slope Estimate, Bulbar (300 mg): −0.310
- Unadjusted Slope Estimate, Fine (300 mg): −0.211
- Unadjusted Slope Estimate, Gross (300 mg): −0.320
- Unadjusted Slope Estimate, Resp (300 mg): −0.186
- Zero Imputation Slope Estimate, Bulbar (300 mg): −0.376
- Zero Imputation Slope Estimate, Fine (300 mg): −0.238
- Zero Imputation Slope Estimate, Gross (300 mg): −0.338
- Zero Imputation Slope Estimate, Resp (300 mg): −0.255
- attenuation of decline in vital capacity (adjusted slopes) (300 mg compared with 50 mg): 21% and 18%
- Unadjusted Slope Estimate, Bulbar, % reduction (300 mg vs 50 mg): 14.84%
- Unadjusted Slope Estimate, Fine, % reduction (300 mg vs 50 mg): 32.15%
- Unadjusted Slope Estimate, Gross, % reduction (300 mg vs 50 mg): −4.92%
- Unadjusted Slope Estimate, Resp, % reduction (300 mg vs 50 mg): 31.11%
- Zero Imputation Slope Estimate, Bulbar, % reduction (300 mg vs 50 mg): 34.95%
- Zero Imputation Slope Estimate, Fine, % reduction (300 mg vs 50 mg): 45.91%
